From patent US20070207202A1, “PHARMACEUTICAL FORMULATIONS OF A MONOHYDRATE CRYSTAL FORM OF 2-(3-FLUORO-4-HYDROXYPHENYL)-7-VINYL-1,3-BENZOXAZOL-5-OL” (Wyeth, priority 2006, published 2007) come the findings set out here.

Holding throughout (assay type): physicochemical
Data set [1] in a line: Water solubility of the two crystal forms.
Data set [2] is described as follows: Long term stability of crystal forms (XRPD, TGA, HPLC). The settings on record: non-micronized, 40° C./75% RH (monohydrate also 40° C. without humidity control), three months. As to the method:
Non-micronized samples of monohydrate and anhydrate were stored at 40° C./75% RH for three months. The monohydrate was also stored at 40° C. without humidity control. During the three months, the samples were checked after two weeks, one month, two months, and three months.

The nature of data set [3]: Medium term stability of crystal form (XRPD and TGA). On the procedure: Samples of monohydrate were stored at room temperature, 56° C., and 70° C. for one week. At room temperature, humidity was maintained at 0% RH. Humidity was not controlled for the higher temperatures.
The samples were analyzed by XRPD and TGA.

The nature of data set [4]: Short term stability of crystal form (XRPD).
A short description of data set [5]: Dynamic vapor sorption (hygroscopicity). The note with it: for DVS gain: 0–90% RH. From the text: Dynamic Vapor Sorption (Allentown, Pa.) was used to measure the hygroscopicity of the anhydrate and monohydrate of the invention (see FIGS. 6 and 7). The step conditions were three hours each at 0%, 30%, 52.5%, 75% and 90% RH, two full cycles.
The nature of data set [6]: Separate long term study of micronized and non-micronized anhydrate (XRPD).

Molecules are shown by their SMILES.

For the molecule `C=Cc1cc(O)cc2nc(-c3ccc(O)c(F)c3)oc12` [monohydrate, 2-(3-fluoro-4-hydroxyphenyl)-7-vinyl-1,3-benzoxazol-5-ol], in data set [1], the “water solubility compared between the two forms (in words)” value is “significantly lower solubility than the anhydrate”. The “chemical stability by HPLC” value in data set [2] is “chemically stable”. Moreover, the “crystal form transformation by XRPD and TGA” value in data set [2] is listed as “did not transform”. Besides, the “crystal form stability by XRPD and TGA” value is “no obvious dehydration” in data set [3] (56° C., humidity not controlled, one week); “no obvious hydration” in data set [3] (70° C., humidity not controlled, 1 day); “partially dehydrated” in data set [3] (70° C., humidity not controlled, 4 days); “mostly dehydrated” in data set [3] (70° C., humidity not controlled, 7 days); “no obvious dehydration” in data set [3] (room temperature, 0% RH, one week). The “crystal form stability by XRPD” value is listed as “stable” in data set [4] (70° C., one hour); “partially dehydrated” in data set [4] (90° C., one half hour); “completely dehydrated” in data set [4] (90° C., one hour). In data set [5], the “hygroscopicity (DVS weight gain, in words)” value is “largely non-hygroscopic”. Moreover, the DVS gain in data set [5] (listed as monohydrate crystal form) was 0.1% gain (0–90% RH).
Regarding `C=Cc1cc(O)cc2nc(-c3ccc(O)c(F)c3)oc12` [anhydrate, 2-(3-fluoro-4-hydroxyphenyl)-7-vinyl-1,3-benzoxazol-5-ol], the “crystal form transformation by XRPD” value is listed as “did not transform to the monohydrate” in data set [6] (micronized samples, 25° C./60% RH, three months); “partially transform to the monohydrate” in data set [6] (micronized samples, 40° C./75% RH, one month); “did not show any obvious transformation” in data set [6] (non-micronized samples, 40° C./75% RH). For the same molecule, the DVS gain in data set [5] (listed as anhydrous crystal form) was 0.2% gain (0–90% RH).
